Source: patent US20050267050A1, “Compositions and methods for treating mdma-induced toxicity” (YEDA RESEARCH AND DEVELOPMENT CO. LTD., priority 2002, published 2005)

Test system: MDMA acute toxicity in mice
Experiment: Protective activity against MDMA acute toxicity (survival) in mice
Assay type: in vivo, C57B1/6J mice
Settings: inhibitor i.p. 5-120 minutes before toxic dose of MDMA; FIG. 6A
Experimental: Next step was to determine whether compounds blocking the enhanced expression of GABA transporters may restraint MDMA-induced hyperthermia. We ran trials to determine whether the mortality levels causes by MDMA administration would be affected by treatment with suspected GABA transporter inhibiting compounds Tiagabine, nipecotic acid derivative NO-711, and Vigabatrin which have been used hitherto as anti-epileptics.
Mice were administered dose(s) of mg/ml of MDMA according to the following schedule and were […] injected with a dose of the GABA transporter blocker. In the first set of experiments the effective toxic dose of MDMA was determined. C57B1/6J mice, 2-3 months old, 6 mice in each group, were tested with different concentration of the drug, prepared in saline and injected intraperitoneally. Saline solution was used as a control. The lowest concentration of the drug causing 100% death within 60 minutes was used in the following experiments. Mice (8 in each group) were injected (i.p.) with different concentrations of the tested GABA transporter inhibitor, or other compound, and 5-120 minutes later were injected with the toxic dose of MDMA. […]

Row | SMILES | Survival of MDMA-treated mice
1 | Cl.O=C(O)C1=CCCN(CCON=C(c2ccccc2)c2ccccc2)C1 [NO-711, 1-(2(((diphenylmethylene)imino)oxy)ethyl)-1,2,5,6-tetrahydro-3-pyridinecarboxylic acid hydrochloride] | significantly improved the survival
2 | Cc1ccsc1C(=CCCN1CCC[C@@H](C(=O)O)C1)c1sccc1C [Tiagabine, (R)-1-[4,4-Bis(3-methyl-2-thienyl)-3-butenyl]-3-piperidinecarboxylic acid] | significantly improved the survival
